From ChEMBL document CHEMBL5104196, “Discovery of Novel, Potent, and Selective Small-Molecule Menin-Mixed Lineage Leukemia Interaction Inhibitors through Attempting Introduction of Hydrophilic Groups” (J Med Chem, 2022)
Active and inactive are the calls of the source. No cut-off for these calls is given here.

Legend:
[1] = Metabolic stability in Sprague-Dawley rat liver microsome assessed as compound remaining measured after 60 min by UPLC-MS/MS analysis; assay type: ADME; details: liver microsomes, read-out: Stability
[2] = target: Casein kinase I (Homo sapiens) (UniProt Q9HCP0+P78368+P48730+P49674+P48729); assay: Inhibition of CK1 (unknown origin) at 1 uM in presence of ATP at Km concentration by Mobility shift assay relative to control; assay type: protein assay
[3] = tested on: MV4-11; assay: Suppression of MEIS1 gene transcription in human MV4-11 cells xenografted in BALB/c nude mouse at 15 mg/kg, iv measured after 24 hrs by RT-PCR analysis; assay type: functional, organism-based
[4] = Metabolic stability in Crab eating monkey liver microsome assessed as compound remaining measured after 60 min by UPLC-MS/MS analysis; assay type: ADME, Macaca fascicularis; details: cynomolgus monkey, liver microsomes, read-out: Stability
[5] = MRT in Sprague-Dawley rat at 15 mg/kg, po; assay type: ADME, organism-based; details: in vivo
[6] = tested on: MV4-11; assay: Antitumor activity against human MV4-11 cells xenografted in BALB/c nude mouse assessed as tumor growth inhibition at 6 mg/kg, po administered every second day for 16 days by calipers analysis; assay type: functional; details: MV4-11, 384 h, time 16 day, read-out: TGI
[7] = tested on: MV4-11; assay: Reversible differentiation arrest in human MV4-11 cells at 0.1 to 10 uM measured after 7 days by flow cytometric analysis; assay type: functional, cell-based; details: dose 0.1-10 µM, time 7.0 day
[8] = AUC (0 to t) in Sprague-Dawley rat at 5 mg/kg, iv; assay type: ADME, organism-based; design: dose 5 mg/kg, route iv; details: in vivo
[9] = tested on: MV4-11; assay: Downregulation of MEISI gene in human MV4-11 cells incubated for 24 hrs by real-time PCR analysis; assay type: functional, cell-based; details: dose 0.1-10 µM, DDE = dose-dependent effect
[10] = Metabolic stability in Beagle dog liver microsome assessed as intrinsic clearance measured upto 60 min by UPLC-MS/MS analysis; assay type: ADME, Canis lupus familiaris; details: microsomes, 1 h
[11] = Metabolic stability in CD-1 mouse liver microsome assessed as compound remaining measured after 60 min by UPLC-MS/MS analysis; assay type: ADME; details: liver microsomes, read-out: Stability
[12] = MRT in Sprague-Dawley rat at 5 mg/kg, iv; assay type: ADME, organism-based; details: in vivo
[13] = Half life in Sprague-Dawley rat at 5 mg/kg, iv; assay type: ADME, organism-based; details: in vivo
[14] = Metabolic stability in Beagle dog liver microsome assessed as compound remaining measured after 60 min by UPLC-MS/MS analysis; assay type: ADME, Canis lupus familiaris; details: liver microsomes, read-out: Stability
[15] = species: Homo sapiens; assay: Inhibition of TKL (unknown origin) at 1 uM in presence of ATP at Km concentration by Mobility shift assay relative to control
[16] = tested on: MV4-11; assay: Antiproliferative activity against human MV4-11 cells assessed as reduction in cell viability measured for 3 days followed by replacement with fresh medium of compound and measured after 72 hrs by cell counting assay; assay type: functional, cell-based; details: MV4-11, 72 h
[17] = tested on: HL-60; assay: Antiproliferative activity against human […] assessed as cell growth inhibition measured for 72 hrs by MTT assay; assay type: functional, cell-based; details: HL-60, 72 h
[18] = Metabolic stability in CD-1 mouse liver microsome assessed as intrinsic clearance measured upto 60 min by UPLC-MS/MS analysis; assay type: ADME; details: microsomes, 1 h
[19] = Cmax in Sprague-Dawley rat at 5 mg/kg, iv; assay type: ADME, organism-based; design: dose 5 mg/kg, route iv; details: in vivo
[20] = species: Homo sapiens; assay: Inhibition of AGC (unknown origin) at 1 uM in presence of ATP at Km concentration by Mobility shift assay relative to control
[21] = tested on: MV4-11; assay: Antiproliferative activity against human MV4-11 cells assessed as reduction in cell viability measured for 3 days by cell counting assay; assay type: functional, cell-based; details: MV4-11, 72 h
[22] = species: Homo sapiens; assay: Inhibition of CMGC (unknown origin) at 1 uM in presence of ATP at Km concentration by Mobility shift assay relative to control
[23] = tested on: MV4-11; assay: Suppression of HOXA9 gene transcription in human MV4-11 cells xenografted in BALB/c nude mouse at 15 mg/kg, iv measured at 24 hrs by RT-PCR analysis; assay type: functional, organism-based
[24] = species: Homo sapiens; assay: Inhibition of GAMK (unknown origin) at 1 uM in presence of ATP at Km concentration by Mobility shift assay relative to control
[25] = tested on: MV4-11; assay: Induction of cell cycle arrest in human MV4-11 cells assessed as accumulation at G2/M phase at 0.1 to 10 uM incubated for 24 hrs by PI/RNase staining based flow cytometry analysis; assay type: functional; details: dose 0.1-10 µM
[26] = species: Homo sapiens; assay: Inhibition of tyrosine kinase (unknown origin) at 1 uM in presence of ATP at Km concentration by Mobility shift assay relative to control
[27] = Cmax in Sprague-Dawley rat at 15 mg/kg, po; assay type: ADME, organism-based; design: dose 15 mg/kg, route po; details: in vivo
[28] = Metabolic stability in CD-1 mouse liver assessed as intrinsic clearance measured upto 60 min by UPLC-MS/MS analysis; assay type: ADME, tissue-based; details: read-out: CLH
[29] = Total clearance in Sprague-Dawley rat at 15 mg/kg, po; assay type: ADME, organism-based; details: in vivo
[30] = tested on: MV4-11; assay: Induction of cell cycle arrest in human MV4-11 cells assessed as accumulation at S phase at 0.1 to 10 uM incubated for 24 hrs by PI/RNase staining based flow cytometry analysis; assay type: functional; details: dose 0.1-10 µM
[31] = Volume of distribution at steady state in Sprague-Dawley rat at 5 mg/kg, iv; assay type: ADME, organism-based; details: in vivo
[32] = Oral bioavailability in Sprague-Dawley rat at 15 mg/kg; assay type: ADME, organism-based; details: in vivo
[33] = Tmax in Sprague-Dawley rat at 15 mg/kg, po; assay type: ADME, organism-based; details: in vivo
[34] = Metabolic stability in Beagle dog liver microsome assessed as half life measured upto 60 min by UPLC-MS/MS analysis; assay type: ADME, Canis lupus familiaris; details: liver microsomes
[35] = Metabolic stability in Crab eating monkey liver microsome assessed as intrinsic clearance measured upto 60 min by UPLC-MS/MS analysis; assay type: ADME, Macaca fascicularis; details: cynomolgus monkey, microsomes, 1 h
[36] = AUC (0 to infinity) in Sprague-Dawley rat at 15 mg/kg, po; assay type: ADME, organism-based; design: time infinity, dose 15 mg/kg, route po; details: in vivo
[37] = Metabolic stability in Crab eating monkey liver microsome assessed as half life measured upto 60 min by UPLC-MS/MS analysis; assay type: ADME, Macaca fascicularis; details: cynomolgus monkey, liver microsomes
[38] = Metabolic stability in human liver microsome assessed as intrinsic clearance measured upto 60 min by UPLC-MS/MS analysis; assay type: ADME; details: microsomes, 1 h
[39] = Metabolic stability in Sprague-Dawley rat liver microsome assessed as intrinsic clearance measured upto 60 min by UPLC-MS/MS analysis; assay type: ADME; details: microsomes, 1 h
[40] = AUC (0 to t) in Sprague-Dawley rat at 15 mg/kg, po; assay type: ADME, organism-based; design: dose 15 mg/kg, route po; details: in vivo
[41] = Total clearance in Sprague-Dawley rat at 5 mg/kg, iv; assay type: ADME, organism-based; details: in vivo
[42] = AUC (0 to infinity) in Sprague-Dawley rat at 5 mg/kg, iv; assay type: ADME, organism-based; design: time infinity, dose 5 mg/kg, route iv; details: in vivo
[43] = Metabolic stability in human liver assessed as intrinsic clearance measured upto 60 min by UPLC-MS/MS analysis; assay type: ADME, tissue-based; details: read-out: CLH
[44] = tested on: MV4-11; assay: Downregulation of HOXA9 gene in human MV4-11 cells incubated for 24 hrs by real-time PCR analysis; assay type: functional, cell-based; details: dose 0.1-10 µM, DDE = dose-dependent effect
[45] = tested on: MV4-11; assay: Antiproliferative activity against human MV4-11 cells harboring MLL-AF4 assessed as cell growth inhibition measured for 72 hrs by MTT assay; assay type: functional, cell-based; details: MV4-11, 72 h
[46] = tested on: MV4-11; assay: Antitumor activity against human MV4-11 cells xenografted in BALB/c nude mouse assessed as tumor growth inhibition at 30 mg/kg, po administered every second day for 16 days by calipers analysis; assay type: functional; details: MV4-11, 384 h, time 16 day, read-out: TGI

CN(C)CCOc1ccc2ncnc(NC3CCN(CC4CN(c5ccc(S(=O)(=O)C6CC6)cc5)C4)CC3)c2n1
remaining at 1 h [1]: 77%
inhibition [2]: < 25%
Activity [3]: Active
remaining at 1 h [4]: 52%
MRT [5]: 12 h
inhibition in vivo at 6 mg/kg [6]: 64%
Activity [7]: Active
AUC(0-t) [8]: 1700 ng·h/mL
Activity [9]: Dde
CLint [10]: 13.9 µL/min/mg
remaining at 1 h [11]: 82%
MRT [12]: 7.1 h
half-life [13]: 17.5 h
remaining at 1 h [14]: 65%
inhibition [15]: < 25%
IC50 [16]: 300 nM
IC50 [17]: > 10000 nM
CLint [18]: 7.2 µL/min/mg
Cmax [19]: 1190 ng/mL
inhibition [20]: < 25%
IC50 [21]: 360 nM
inhibition [22]: < 25%
Activity [23]: Active
inhibition [24]: < 25%
Activity [25]: Active
inhibition [26]: < 25%
Cmax [27]: 56.7 ng/mL
CLint scaled [28]: 28.2 mL/min/kg
CL/F [29]: 179 mL/min/kg
Activity [30]: Active
Vdss [31]: 49.3 L/kg
bioavailability [32]: 16.9%
Tmax [33]: 7.3 h
half-life [34]: 1.7 h
CLint [35]: 22 µL/min/mg
AUC(0-inf) [36]: 1480 ng·h/mL
half-life [37]: 1.08 h
CLint [38]: 8.4 µL/min/mg
CLint [39]: 9.7 µL/min/mg
AUC(0-t) [40]: 864 ng·h/mL
CL [41]: 34.27 mL/min/kg
AUC(0-inf) [42]: 2500 ng·h/mL
CLint scaled [43]: 8 mL/min/kg
Activity [44]: Dde
IC50 [45]: 300 nM
inhibition in vivo at 30 mg/kg [46]: 97%
